Reference: US20070031394A1, “Method of treating neurological disorders” (priority 2005, published 2007)

What was measured:
Format in all cases: in vivo, human
essential tremor [1] = assay: One patient, sequential course of riboflavin with/without coenzyme Q10 and B vitamins, tremor score; parameters: key to tremor score, Head / tremor score, Right Hand / tremor score, Left Hand: 0=Normal; 1=Slight; 2=Moderately abnormal; 3=Markedly abnormal; 4=Severely abnormal
Protocol: For one patient, before beginning a course of therapy in accordance with the inventive treatment, that patient's tremor score was Head 0, Right Hand 2, Left Hand 3. Treatment commenced for three months as follows:
The tremor score, after three months of treatment, improved to Head 0, Right Hand 1, Left Hand 2. Treatment then continued for an additional three months with an increase in the daily dosage of Riboflavin to 800 mg. The tremor score was then measured to be Head 0, Right Hand 0, Left Hand 1. […] Moreover, if treatment was resumed, there was a return to reduced tremor levels after 2 to 3 days.

[2] = tested on: tremor on action and intention due to Depakote; seizures; assay: One patient with severe epilepsy and Depakote-induced tremor treated with the inventive vitamin therapy; conditions: one patient with severe epilepsy on high dose Depakote
Excerpt: Other conditions that are commonly seen in patients with essential tremor, such as deafness, motion sickness, balance difficulties, and cognitive problems may be benefited by this treatment. Additionally, patients who develop tremors due to the use of medications that cause tremor (such as Depakote and Lithium) may benefit by the use of the inventive vitamin therapy. […] Other neurological conditions, such as epilepsy, when associated with tremor, may be benefited by the inventive vitamin therapy.

essential tremor [3] = assay: Riboflavin daily in 15 persons over 50 with essential tremor, Fahn-Tolosa-Marin clinical tremor rating; conditions: 200 mg to 1000 mg of riboflavin on a daily basis
[4] = Side effects in the 15-person riboflavin test
Protocol: (§1) 15 persons over the age of 50 were tested, utilizing daily dosages of between 400 and 800 mg of riboflavin. Riboflavin was the only vitamin used for those patients who were on other tremor medications. These patients were continued on them.

essential tremor [5] = assay: Riboflavin daily in 15 persons over 50 with essential tremor, Fahn-Tolosa-Marin clinical tremor rating; parameters: key to Tremor Score After Rx, L Hand / Tremor Score After Rx, Head / Tremor Score After Rx, R Hand / Tremor Score After Rx, Hands: 0=Normal; 1=Slight; 2=Moderately abnormal; 3=Markedly abnormal; 4=Severely abnormal; conditions: for Tremor Score After Rx, Hands: before Rx Hands 1
Protocol: as §1
Patients were evaluated with arms outstretched, elbows bent and hands near the chin, writing with both hands, drinking holding a cup with either hand, and pouring water with either hand. Evaluation was based on a four-point scale as published by Fahn, Tolosa and Marin, Clinical Rating Scale for Tremor in Parkinson's Disease and Movement Disorders [Williams and Wilkins, 1993].

[6] = after an additional three months with Riboflavin increased to 800 mg daily, same co-administered vitamins and coenzyme Q10

Cc1cc2nc3c(=O)[nH]c(=O)nc-3n(C[C@H](O)[C@H](O)[C@H](O)CO)c2cc1C [Riboflavin, riboflavin]
head and hand findings following treatment (essential tremor [1]; additional three months with just daily Riboflavin (800 mg) and coenzyme Q10 (1000 mg)): stable head and hand findings
tremor score, Head (essential tremor [1]; [6]): 0
tremor score, Left Hand (essential tremor [1]; [6]): 1
tremor score, Right Hand (essential tremor [1]; [6]): 0
tremor score, Head (essential tremor [1]; after three months of daily Riboflavin 400 mg + Coenzyme Q10 1000 mg + Thiamine 50 mg + Niacin 50 mg + Pantothenic Acid 50 mg, before Head 0): 0
tremor score, Left Hand (essential tremor [1]; after three months of daily Riboflavin 400 mg + Coenzyme Q10 1000 mg + Thiamine 50 mg + Niacin 50 mg + Pantothenic Acid 50 mg, before Left Hand 3): 2
tremor score, Right Hand (essential tremor [1]; after three months of daily Riboflavin 400 mg + Coenzyme Q10 1000 mg + Thiamine 50 mg + Niacin 50 mg + Pantothenic Acid 50 mg, before Right Hand 2): 1
head and hand findings (essential tremor [1]; thereafter a year with just Riboflavin 800 mg daily): stable head and hand findings
tremor when treatment was missed (essential tremor [1]; treatment missed for two days or more): prior untreated levels of tremor returned
seizure frequency [2]: decreased
tremor on action and intention [2]: significantly improved
effect on symptoms of essential tremor (essential tremor [3]): ameliorates the symptoms of essential tremor
side effect ([4]; general statement on the treatment): bright yellow urine
Side Effects ([4]; patient # 1, 400 mg daily, 6 wks.): None
Side Effects ([4]; patient # 2, 600 mg daily, 3 mos.): None
Side Effects ([4]; patient # 3, 400 mg daily, 4 wks.): None
Side Effects ([4]; patient # 4, 800 mg daily, 2 wks.): None
Side Effects ([4]; patient # 5, 400 mg daily, 7 mos., concomitant Inderal LA 80 mg.): None
Side Effects ([4]; patient # 6, 400 mg daily, 12 mos., concomitant Inderal LA 60): None
Side Effects ([4]; patient # 7, 400 mg daily, 4 wks.): None
Side Effects ([4]; patient # 8, 600 mg daily, 4 wks., concomitant Topamax): None
Side Effects ([4]; patient # 9, 400 mg daily, 4 wks., concomitant Mysoline, Inderal and Topamax): None
Side Effects ([4]; patient # 10, 800 mg daily, 4 mos., concomitant Mysoline, Inderal and Topamax): None
Side Effects ([4]; patient # 11, 400 mg daily, 1 year): None
Side Effects ([4]; patient # 12, 400 mg daily, 2 wks.): None
Side Effects ([4]; patient # 13, 400 mg daily, 3 wks.): None
Side Effects ([4]; patient # 14, 400 mg daily, 5 mos.): None
Side Effects ([4]; patient # 15, 400 mg daily, 1 mo.): None
Tremor Score After Rx, Hands (essential tremor [5]; patient # 1, 400 mg daily, 6 wks., concomitant None): Hands 1
Tremor Score After Rx, Head (essential tremor [5]; patient # 1, 400 mg daily, 6 wks., before Rx Head 2, concomitant tremor medications None): Head 1
Tremor Score After Rx, Hands (essential tremor [5]; patient # 2, 600 mg daily, 3 mos., concomitant None): Hands 1
Tremor Score After Rx, Head (essential tremor [5]; patient # 2, 600 mg daily, 3 mos., before Rx Head 2, concomitant None): Head 1
Tremor Score After Rx, Head (essential tremor [5]; patient # 3, 400 mg daily, 4 wks., before Rx Head 0, concomitant None): Head 0
Tremor Score After Rx, L Hand (essential tremor [5]; patient # 3, 400 mg daily, 4 wks., before Rx L Hand 4, concomitant None): L Hand 3
Tremor Score After Rx, R Hand (essential tremor [5]; patient # 3, 400 mg daily, 4 wks., before Rx R Hand 3, concomitant None): R Hand 2
Tremor Score After Rx, Head (essential tremor [5]; patient # 4, 800 mg daily, 2 wks., before Rx Head 0, concomitant None): Head 0
Tremor Score After Rx, L Hand (essential tremor [5]; patient # 4, 800 mg daily, 2 wks., before Rx L Hand 3, concomitant None): L Hand 2
Tremor Score After Rx, R Hand (essential tremor [5]; patient # 4, 800 mg daily, 2 wks., before Rx R Hand 2, concomitant None): R Hand 2
Tremor Score After Rx, Head (essential tremor [5]; patient # 5, 400 mg daily, 7 mos., before Rx Head 0, concomitant Inderal LA 80 mg.): Head 0
Tremor Score After Rx, L Hand (essential tremor [5]; patient # 5, 400 mg daily, 7 mos., before Rx L Hand 3, concomitant Inderal LA 80 mg.): L Hand 2
Tremor Score After Rx, R Hand (essential tremor [5]; patient # 5, 400 mg daily, 7 mos., before Rx R Hand 2, concomitant Inderal LA 80 mg.): R Hand 2
Tremor Score After Rx, Head (essential tremor [5]; patient # 6, 400 mg daily, 12 mos., before Rx Head 0, concomitant Inderal LA 60): Head 0
Tremor Score After Rx, L Hand (essential tremor [5]; patient # 6, 400 mg daily, 12 mos., before Rx L Hand 2, concomitant Inderal LA 60): L Hand 1
Tremor Score After Rx, R Hand (essential tremor [5]; patient # 6, 400 mg daily, 12 mos., before Rx R Hand 2, concomitant Inderal LA 60): R Hand 1
Tremor Score After Rx, Head (essential tremor [5]; patient # 7, 400 mg daily, 4 wks., before Rx Head 0, concomitant None): Head 0
Tremor Score After Rx, L Hand (essential tremor [5]; patient # 7, 400 mg daily, 4 wks., before Rx L Hand 2, concomitant None): L Hand 1
Tremor Score After Rx, R Hand (essential tremor [5]; patient # 7, 400 mg daily, 4 wks., before Rx R Hand 2, concomitant None): R Hand 1
Tremor Score After Rx, Head (essential tremor [5]; patient # 8, 600 mg daily, 4 wks., before Rx Head 0, concomitant Topamax): Head 0
Tremor Score After Rx, L Hand (essential tremor [5]; patient # 8, 600 mg daily, 4 wks., before Rx L hand 4, concomitant Topamax): L Hand 3
Tremor Score After Rx, R Hand (essential tremor [5]; patient # 8, 600 mg daily, 4 wks., before Rx R hand 4, concomitant Topamax): R Hand 3
Tremor Score After Rx, Head (essential tremor [5]; patient # 9, 400 mg daily, 4 wks., before Rx Head 0, concomitant Mysoline, Inderal and Topamax): Head 0
Tremor Score After Rx, L Hand (essential tremor [5]; patient # 9, 400 mg daily, 4 wks., before Rx L Hand 4, concomitant Mysoline, Inderal and Topamax): L hand 3
Tremor Score After Rx, R Hand (essential tremor [5]; patient # 9, 400 mg daily, 4 wks., before Rx R Hand 4, concomitant Mysoline, Inderal and Topamax): R Hand 4
Tremor Score After Rx, Head (essential tremor [5]; patient # 10, 800 mg daily, 4 mos., before Rx Head 0, concomitant Mysoline, Inderal and Topamax): Head 0
Tremor Score After Rx, L Hand (essential tremor [5]; patient # 10, 800 mg daily, 4 mos., before Rx L Hand 3, concomitant Mysoline, Inderal and Topamax): L Hand 2
Tremor Score After Rx, R Hand (essential tremor [5]; patient # 10, 800 mg daily, 4 mos., before Rx R Hand 4, concomitant Mysoline, Inderal and Topamax): R Hand 4
Tremor Score After Rx, Head (essential tremor [5]; patient # 11, 400 mg daily, 1 year, before Rx Head 2, concomitant None): Head 1
Tremor Score After Rx, L Hand (essential tremor [5]; patient # 11, 400 mg daily, 1 year, before Rx L Hand 2, concomitant None): L Hand 1
Tremor Score After Rx, R Hand (essential tremor [5]; patient # 11, 400 mg daily, 1 year, before Rx R Hand 2, concomitant None): R Hand 1
Tremor Score After Rx, Head (essential tremor [5]; patient # 12, 400 mg daily, 2 wks., before Rx Head not given, concomitant None): Head 2
Tremor Score After Rx, L Hand (essential tremor [5]; patient # 12, 400 mg daily, 2 wks., before Rx L Hand not given, concomitant None): L Hand 2
Tremor Score After Rx, R Hand (essential tremor [5]; patient # 12, 400 mg daily, 2 wks., before Rx R hand 2, concomitant None): R Hand 1
Tremor Score After Rx, Head (essential tremor [5]; patient # 13, 400 mg daily, 3 wks., before Rx Head 0, concomitant None): Head 0
Tremor Score After Rx, L Hand (essential tremor [5]; patient # 13, 400 mg daily, 3 wks., before Rx L Hand 2, concomitant None): L Hand 1
Tremor Score After Rx, R Hand (essential tremor [5]; patient # 13, 400 mg daily, 3 wks., before Rx R Hand 2, concomitant None): R Hand 1
Tremor Score After Rx, Head (essential tremor [5]; patient # 14, 400 mg daily, 5 mos., before Rx Head 0, concomitant None): Head 0
Tremor Score After Rx, L Hand (essential tremor [5]; patient # 14, 400 mg daily, 5 mos., before Rx L Hand 2, concomitant None): L Hand 1
Tremor Score After Rx, R Hand (essential tremor [5]; patient # 14, 400 mg daily, 5 mos., before Rx R Hand 2, concomitant None): R Hand 1
Tremor Score After Rx, Head (essential tremor [5]; patient # 15, 400 mg daily, 1 mo., before Rx Head 0, concomitant None): Head 0
Tremor Score After Rx, R Hand (essential tremor [5]; patient # 15, 400 mg daily, 1 mo., before Rx R Hand 1, concomitant None): R Hand 1
symptoms after stopping daily intake (essential tremor [5]; within a few days of stopping the daily high dosage of riboflavin): the symptoms of essential tremor returned
